How the values were obtained:
human platelets = experiment: Light transmission aggregometry of collagen-stimulated human platelet-rich plasma; assay type: cell-based; conditions: human PRP, FIG. 2, 3
Method: Anti-platelet activity of compounds of invention was assessed using light transmission aggregometry assay of human platelet-rich plasma (PRP). Venous blood was obtained from male volunteers at the University Hospital Blood Bank Centre. Volunteer donors had not taken any medicines for the preceding two weeks. Blood was collected into vials containing sodium citrate (3.2%, 9:1 v/v) as an anti-coagulant agent. To obtain platelet rich plasma (PRP), blood was centrifuged at 260×g for 15 min. The platelet […] plasma fraction (used as a blank sample) was obtained by centrifugation of the remaining blood for 10 min at 2600×g. Aggregation of blood platelets was assessed in PRP with a dual channel Chronolog aggregometer (CHRONO-LOG) using a method previously described by Born^35. PRP (500 μl) was equilibrated for 2 min at 37° C. with a continuous stirring at 800 rpm and then stimulated with collagen to cause aggregation. At the beginning of each experiment, concentrations of collagen that induced sub-maximum aggregation response were determined. These concentrations were in the range of […], respectively. All the tested compounds were added 2 min prior to stimulation of platelets with collagen. Transmittance was read 6 min after stimulation of platelets with an agonist. […]

arterial thrombosis = experiment: In vivo models of arterial thrombosis; design: species or system rat or mice; conditions: FIG. 5
Method: To confirm antithrombotic activity of compounds of invention, inhibitors of PDIA3, pharmacological activity of selected compounds was tested in vivo in the rat or mice model of arterial thrombosis. Wistar rats were anaesthetized with pentobarbital (40 mg/kg, i.p.) and placed in a supine position on a heated (37° C.) operating table. Arterial thrombosis was induced by electrical stimulation of the right common carotid artery, as previously described (Kramkowski et al., 2012). Briefly, the anode, a stainless steel L-shaped wire, was inserted under the artery and connected to a constant current generator. The cathode was attached subcutaneously to the hind limb. The artery was stimulated (1 mA) for 10 min. Fifty-five minutes after the beginning of stimulation, the segment of the common carotid artery containing the formed thrombus was dissected and opened lengthwise, and the thrombus was completely removed and air-dried at room temperature for 24 h. Thrombus was then weighed in a blinded manner. Antithrombotic effects of compounds of invention in mice was analyzed using intravital fluorescence confocal microscopy as described previously (Hayashi T et al., 2008). […] Changes in fluorescence intensity were measured as described previously (Hayashi T et al., 2008, Kramkowski et al., 2002)

COC(=O)C1CN1S(=O)(=O)c1ccc2c(C=O)c(N(C)C)ccc2c1 (centres unmarked) [Compound C-3390, Methyl 1-[[6-(dimethylamino)-5-formyl-2-naphthyl]sulfonyl]aziridine-2-calboxylate]
Inhibition of platelet aggregation (human platelets): lowest EC50
Anti-thrombotic effects in vivo (arterial thrombosis): anti-thrombotic effects

Source: patent US20230069886A1, “AROMATIC SULPHONAMIDES DERIVATIVES THAT INHIBITS PDI A3, THEIR SYNTHESIS AND USE” (Uniwersytet Jagiellonski, priority 2020, published 2023)
